# Biological target: T1, chimeric human RORγ-Gal4 receptor (Homo sapiens, UniProt P51449)
# T1 sequence (P51449 269-508 limits assumed): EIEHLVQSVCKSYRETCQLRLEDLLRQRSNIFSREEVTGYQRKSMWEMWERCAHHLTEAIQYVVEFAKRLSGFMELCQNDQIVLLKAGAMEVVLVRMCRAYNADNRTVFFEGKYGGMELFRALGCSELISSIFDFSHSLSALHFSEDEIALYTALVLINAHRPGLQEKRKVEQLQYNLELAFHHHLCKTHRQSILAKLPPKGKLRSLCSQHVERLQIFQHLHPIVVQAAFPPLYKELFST
# Test: transient transactivation assay (RORγ-Gal4 luciferase reporter)
# Assay type: cell-based
# Conditions: Cos-7 cells transfected with RORγ-Gal4 and 5Gal4 pGL3 TK Luc reporter; overnight incubation; T0901317 at 10^-5 M as reference; read-out: IC50
row,IC50 [nM],Compound
1,500 to 1000,"Cc1cc(C#N)cc2c1cc(Cc1c(Cl)ccc(O[C@H]3C[C@@H](C(=O)O)C3)c1Cl)n2C [Example AH1, cis-3-(2,4-dichloro-3-((6-cyano-1,4-dimethyl-1H-indol-2-yl)methyl)phenoxy)cyclobutanecarboxylic acid]"
2,100 to 500,Cc1cc(C#N)cc2c1cc(Cc1c(Cl)ccc(C(=O)N3CCC4(CC3)COC4)c1Cl)n2C [AA-25]
3,1000 to 10000,COC[C@@H]1CN(C(=O)c2ccc(Cl)c(Cc3cc4c(C)cc(C(F)(F)F)cc4n3C)c2Cl)C[C@H]1C(=O)O [Example B-15]
4,< 100,Cc1cc(C(F)(F)F)cc2c1nc(Cc1c(Cl)ccc(C(=O)N3CCC4(CCOC4)CC3)c1Cl)n2C [BJ-8]
5,< 100,Cc1cc(C(F)(F)F)cn2c(C)c(Cc3c(Cl)ccc(C(=O)N4CCC(C(C)(C)O)CC4)c3Cl)nc12 [CT-3]
6,100 to 500,Cc1cc(C#N)cc2c1cc(Cc1c(Cl)ccc(C(=O)N3CCCC(O)C3)c1Cl)n2C (stereo not shown) [AA-5]
7,100 to 500,COC1CCN(Cc2ccc(Cl)c(Cc3nc4c(C)cc(C(F)(F)F)cc4n3C)c2Cl)CC1 [BW-2]
8,100 to 500,Cc1cc(C(F)(F)F)cc2c1nc(Cc1c(Cl)ccc(C(=O)N3CCC(C(C)(C)O)CC3)c1Cl)n2C [BJ-9]
9,100 to 500,Cc1cc(C(F)(F)F)cc2c1nc(Cc1c(Cl)ccc(C(=O)N3CCC(N(C)C)CC3)c1Cl)n2C [BJ-30]
10,< 100,Cc1cc(C(F)(F)F)cc2c1cc(Cc1c(Cl)ccc(C(=O)N3CCC(C(C)C(=O)O)CC3)c1Cl)n2C (stereo not shown) [Example B-19]
11,100 to 500,Cc1cc(C#N)cc2c1cc(Cc1c(Cl)ccc(C(=O)N3CC(N4CCCC4)C3)c1Cl)n2C [AA-16]
12,< 100,Cc1cc(C(F)(F)F)cc2c1cc(Cc1c(Cl)ccc(C(=O)N3CCC(C(O)C(=O)O)CC3)c1Cl)n2C (stereo not shown) [Example B-20]

# Second part, the compound before the results:
row,Compound,IC50 [nM]
1,"Cc1cc(C(F)(F)F)cc2cnn(Cc3c(Cl)ccc(C(=O)N4CCC(CC(=O)O)CC4)c3Cl)c12 [EC, 2-(1-(2,4-dichloro-3-((7-methyl-5-(trifluoromethyl)-1H-indazol-1-yl)methyl)benzoyl)piperidin-4-yl)acetic acid]",< 100
2,"Cc1cn(C(=O)c2c(Cl)ccc(C(=O)N3CCC(CC(=O)O)CC3)c2Cl)c2c(C)cc(C#N)cc12 [DN, 2-(1-(2,4-dichloro-3-(5-cyano-3,7-dimethyl-1H-indole-1-carbonyl)benzoyl)piperidin-4-yl)acetic acid]",< 100
3,"Cc1nn(Cc2c(Cl)ccc(C(=O)N3CCC(CC(=O)O)CC3)c2Cl)c2c(C)cc(C(F)(F)F)cc12 [DE, 2-(1-(2,4-dichloro-3-((3,7-dimethyl-5-(trifluoromethyl)-1H-indazol-1-yl)methyl)benzoyl)piperidin-4-yl)acetic acid]",< 100
4,"Cc1cn(Cc2c(Cl)ncc(C(=O)N3CCC(CC(=O)O)CC3)c2Cl)c2c(C)cc(C(F)(F)F)cc12 [ER, 2-(1-(4,6-dichloro-5-((3,7-dimethyl-5-(trifluoromethyl)-1H-indol-1-yl)methyl)nicotinoyl)piperidin-4-yl)acetic acid]",< 100
5,"Cc1cc(C)c2nc(Cc3c(Cl)ccc(C(=O)N4CCOCC4)c3Cl)n(C)c2c1 [Example BO, (2,4-dichloro-3-((1,4,6-trimethyl-1H-benzo[d]imidazol-2-yl)methyl)phenyl)(morpholino)methanone]",500 to 1000
6,"Cc1cc(C(F)(F)F)nc2c1cc(Cc1c(Cl)ncc(C(=O)N3CC[C@@H](CC(=O)O)[C@@H](C)C3)c1Cl)n2C [Example GC, 2-((3R,4S)-1-(4,6-dichloro-5-((1,4-dimethyl-6-(trifluoromethyl)-1H-pyrrolo[2,3-b]pyridin-2-yl)methyl)nicotinoyl)-3-methylpiperidin-4-yl)acetic acid]",< 100
7,"Cc1cc(C(F)(F)F)cc2c1nc(Cc1c(Cl)ccc(C(=O)N3C[C@@H]4[C@H](C3)[C@H]4C(=O)O)c1Cl)n2C [Example BL, (1R,5S,6r)-3-(2,4-dichloro-3-((1,4-dimethyl-6-(trifluoromethyl)-1H-benzo[d]imidazol-2-yl)methyl)benzoyl)-3-azabicyclo[3.1.0]hexane-6-carboxylic acid]",1000 to 10000
